Assay results taken from patent US20250136592A1, “C-LINKED INHIBITORS OF ENL/AF9 YEATS” (Bridge Medicines, priority 2021, published 2025).
Where two headings read alike, the source gives them in different places.

Experiments:
[1] = test system: MV4:11 (MLL-AF4 MLL) cells; test: Cell viability assay (CellTiter-Glo), 12 days; assay type: cell-based; settings: MV4;11 cells, 12 day, read-out: CTG_MV4, 11 12 DAY_EC50
Protocol: The assays were conducted over 12 days and the cells being split on days 4 and 8. […] Blank wells received cell culture medium. Plates were incubated for 4 days at 37° C. with 5% CO2. On days 4 and day 8 the cells were split and incubated for a further 4 days whilst an aliquot of cells were taken for the CTG readout. For the cell splitting, 270 nL of compounds or DMSO was added to a new 96 well cell culture plate to which 90 μL of medium plus 10 μL of cells from the original assay plate (after mixing) or 100 μL of medium (Blank wells) was added. This was repeated on day 8.
Cell viability was assessed using the CellTiter-Glo® homogeneous luminescent assay kit (Promega, G9243), according to the manufacturer's instructions. This quantifies ATP, which indicates the presence of metabolically active cells. […] The resulting data were analyzed as follows:
where vehicle are cells treated with 0.3% DMSO, Blank is culture medium. IC50 determinations were calculated by fitting the curve using XLfit (v5.3.1.3): Y=Bottom+(Top−Bottom)/(1+10^((LogIC50−X)*HillSlope)).

ENL YEATS domain = ENL YEATS domain (Homo sapiens (Human), UniProt Q03111); test: TR-FRET ENL Screening Assay; settings: 6xHIS ENL YEATS domain binding to H3K9cr peptide
Sequence of ENL YEATS domain (Q03111 1-138): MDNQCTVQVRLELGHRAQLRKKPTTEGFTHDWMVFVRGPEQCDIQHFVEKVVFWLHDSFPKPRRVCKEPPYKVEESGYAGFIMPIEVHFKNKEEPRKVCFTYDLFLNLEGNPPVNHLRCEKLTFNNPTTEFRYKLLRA
Protocol: Compounds of the invention were tested in a TR-FRET ENL Screening Assay. TR-FRET (time-resolved fluorescence energy transfer) can be used to quantify ENL YEATS domain binding to a crotonylated histone peptide (H3K9cr, aa1-20). Streptavidin-Europium (Eu) chelate binds the biotinylated peptide, while Anti-6×HIS ULight™ binds 6×HIS-ENL. When Eu chelate is excited at 320 nm, fluorescence resonance energy transfer (FRET) occurs if Eu and ULight are made proximal by ENL binding to the acyl-peptide.
Low control (LC) wells received 5 μL of assay buffer instead of ENL protein. […] The response at each compound concentration minus the LC value was converted to percent inhibition of the vehicle control group response (HC-LC).

Compound	EC50 ([1]; Homo sapiens, 288 h) [nM]	IC50 (ENL YEATS domain) [nM]	EC50 [1] [nM]
Cc1nc(C)n2cc(C(=O)Nc3cc4[nH]c([C@H]5CCCCN5C)cc4cn3)ccc12 [Example 90]	144	51	–
CN1C(=O)Cc2ccc(C(=O)Nc3cc4[nH]c([C@H]5CCCCN5C)cc4cn3)cc21 [Example 94]	368	220	–
CN1CCC[C@@H]1c1cc2cnc(NC(=O)c3ccc4c(F)nn(C)c4c3)cc2[nH]1 [Example 55]	688	18	–
CNc1nn(C)c2cc(C(=O)Nc3cc4[nH]c([C@H]5CCCN5C)cc4cn3)ccc12 [Example 50]	2320	103	–
CN1CCC[C@@H]1c1cc2cnc(NC(=O)c3ccn4c(C5COC5)ncc4c3)cc2[nH]1 [Example 6, (R)—N-(2-(1-methylpyrrolidin-2-yl)-1H-pyrrolo[3,2-c]pyridin-6-yl)-3-(oxetan-3-yl) imidazo[1,5-a]pyridine-7-carboxamide]	–	106	33
Cc1ncn2ccc(C(=O)Nc3cc4[nH]c([C@H]5CCCN5C)cc4cn3)cc12 [Example 70]	189	110	–
CN1CCC[C@@H]1c1cc2cnc(NC(=O)c3cc4c(cn3)cnn4C)cc2[nH]1 [Example 5, (R)-1-methyl-N-(2-(1-methylpyrrolidin-2-yl)-1H-pyrrolo[3,2-c]pyridin-6-yl)-1H-pyrazolo[4,3-c]pyridine-6-carboxamide]	–	1240	–
Cc1ncn2ccc(C(=O)Nc3cc4[nH]c([C@H]5CCCCN5C)cc4cn3)cc12 [Example 92]	100	93	–
CN1CCC[C@@H]1c1cc2cnc(NC(=O)c3ccc4c(N)nccc4c3)cc2[nH]1 [Example 41]	72	14	–
Cc1nnc(C)c2cc(C(=O)Nc3cc4[nH]c([C@H]5CCCCN5C)cc4cn3)ccc12 [Example 93]	146	76	–
CN1CCCC1c1nc2cnc(NC(=O)c3ccc4c(cnn4C)c3)cc2[nH]1 (centres unmarked) [Example 2, 1-methyl-N-(2-(1-methylpyrrolidin-2-yl)-1H-imidazo[4,5-c]pyridin-6-yl)-1H-indazole-5-carboxamide]	1320	–	–
Cc1nccc2ccc(C(=O)Nc3cc4[nH]c([C@H]5CCCN5C)cc4cn3)cc12 [Example 83]	229	64	–
CN1C(=O)Cc2cc(C(=O)Nc3cc4[nH]c([C@H]5CCCCN5C)cc4cn3)ccc21 [Example 95]	451	–	–
Cc1ccc2cc(C(=O)Nc3cc4[nH]c([C@H]5CCCN5C)cc4cn3)ccc2n1 [Example 66]	1630	29	–
CN1CCC[C@@H]1c1cc2cnc(NC(=O)c3ccc4c(C(F)(F)F)nn(C)c4c3)cc2[nH]1 [Example 39]	2780	43	–
CN1CCCC1c1nc2ccc(NC(=O)c3ccc4ncccc4c3)cc2[nH]1 (centres unmarked) [Example 25]	–	181	–
CN1CCCCC1c1nc2cc(NC(=O)c3ccc4c(cnn4C)c3)ccc2[nH]1 (centres unmarked) [Example 9, 1-methyl-N-[2-(1-methylpiperidin-2-yl)-1H-1,3-benzodiazol-5-yl]indazole-5-carboxamide]	–	200	–
Cc1ccc2cc(C(=O)Nc3cnc4cc([C@H]5CCCN5C)[nH]c4c3)c(F)cc2n1 [Example 73]	1420	–	–
CN1CCCC[C@@H]1c1cc2cnc(NC(=O)c3ccc4cnn(C)c4c3)cc2[nH]1 [Example 8, 1-methyl-N-[2-[(2R)-1-methylpiperidin-2-yl]-1H-pyrrolo[3,2-c]pyridin-6-yl]indazole-6-carboxamide]	123	100	–
CN1CCC[C@@H]1c1cc2cnc(NC(=O)c3ccn4c(C5CC5)ncc4c3)cc2[nH]1 [Example 68]	48	35	–
Cc1nn(C)c(=O)c2ccc(C(=O)Nc3cc4[nH]c([C@H]5CCCCN5C)cc4cn3)cc12 [Example 104, (R)-2,4-dimethyl-N-(2-(1-methylpiperidin-2-yl)-1H-pyrrolo[3,2-c]pyridin-6-yl)-1-oxo-1,2-dihydrophthalazine-6-carboxamide]	492	160	–
CN1CCCC[C@@H]1c1cc2cnc(NC(=O)c3ccc4c(cnn4C)c3)cc2[nH]1 [Example 98]	440	–	–
CN1CCC[C@@H]1c1nc2cc(NC(=O)c3ccc4c(cnn4-c4ccccn4)c3)ccc2[nH]1 [Example 21]	–	200	–
Cc1ncc2ccc(C(=O)Nc3cc4[nH]c([C@H]5CCCN5C)cc4cn3)cn12 [Example 28]	186	133	–

Compound	EC50 ([1]; Homo sapiens, 288 h) [nM]	IC50 (ENL YEATS domain) [nM]	EC50 [1] [nM]
Cc1nn(C)c(=O)c2cc(C(=O)Nc3cc4[nH]c([C@H]5CCCCN5C)cc4cn3)ccc12 [Example 103, (R)-1,3-dimethyl-N-(2-(1-methylpiperidin-2-yl)-1H-pyrrolo[3,2-c]pyridin-6-yl)-4-oxo-3,4-dihydrophthalazine-6-carboxamide]	292	148	–
Cc1noc2cc(C(=O)Nc3ccc4nc(C5CCCN5C)[nH]c4c3)ccc12 (centres unmarked) [Example 12]	201	78	–
CNc1nccc2cc(C(=O)Nc3cc4[nH]c([C@H]5CCCN5C)cc4cn3)ccc12 [Example 79, (R)-1-(methylamino)-N-(2-(1-methylpyrrolidin-2-yl)-1H-pyrrolo[3,2-c]pyridin-6-yl) isoquinoline-6-carboxamide]	446	–	–
CN1CCC[C@@H]1c1nc2cc(NC(=O)c3ccc4c(-c5ccncc5)noc4c3)ccc2[nH]1 [Example 13]	359	–	–
CN1CCC[C@@H]1c1nc2cc(NC(=O)c3ccc4c(cnn4-c4ccncc4)c3)ccc2[nH]1 [Example 3, (R)—N-(2-(1-methylpyrrolidin-2-yl)-1H-benzo[d]imidazol-5-yl)-1-(pyridin-4-yl)-1H-indazole-5-carboxamide]	571	–	–
CN1CCCC[C@@H]1c1cc2cnc(NC(=O)c3ccc4nnn(C)c4c3)cc2[nH]1 [Example 91, (R)-1-methyl-N-(2-(1-methylpiperidin-2-yl)-1H-pyrrolo[3,2-c]pyridin-6-yl)-1H-benzo[d][1,2,3]triazole-6-carboxamide]	215	–	–
CN1CCC[C@@H]1c1nc2cc(NC(=O)c3ccc4c(cnn4-c4cccnc4)c3)ccc2[nH]1 [Example 22]	–	131	–
CN1CCC[C@@H]1c1nc2ccc(NC(=O)c3ccc4c(C5CC5)nn(C)c4c3)cc2[nH]1 [Example 10]	280	–	–
Cc1nc(C)n2cc(C(=O)Nc3cc4[nH]c([C@H]5CCCN5C)cc4cn3)ccc12 [Example 71]	220	–	–
CN1CCCC[C@@H]1c1cc2cnc(NC(=O)c3ccc4c(=O)n(C)ccc4c3)cc2[nH]1 [Example 100, (R)-2-methyl-N-(2-(1-methylpiperidin-2-yl)-1H-pyrrolo[3,2-c]pyridin-6-yl)-1-oxo-1,2-dihydroisoquinoline-6-carboxamide]	202	–	–
Cc1nccc2cc(C(=O)Nc3cc4[nH]c([C@H]5CCCCN5C)cc4cn3)ccc12 [Example 80, (R)-1-methyl-N-(2-(1-methylpiperidin-2-yl)-1H-pyrrolo[3,2-c]pyridin-6-yl) isoquinoline-6-carboxamide]	187	–	–
Cc1cc2ccc(C(=O)Nc3cc4[nH]c([C@H]5CCCN5C)cc4cn3)cn2n1 [Example 1, 2-methyl-N-{2-[(2R)-1-methylpyrrolidin-2-yl]-1H-pyrrolo[3,2-c]pyridin-6-yl}pyrazolo[1,5-a]pyridine-6-carboxamide]	3250	–	–
Cc1noc2ccc(C(=O)Nc3ccc4nc([C@H]5CCCN5C)[nH]c4c3)cc12 [Example 11]	–	465	–
COc1nccc2cc(C(=O)Nc3cc4[nH]c([C@H]5CCCN5C)cc4cn3)ccc12 [Example 52]	–	25	–
Cc1noc2c(F)c(C(=O)Nc3ccc4nc([C@H]5CCCN5C)[nH]c4c3)ccc12 [Example 18]	–	125	–
CN1CCC[C@@H]1c1cc2cnc(NC(=O)c3ccc4c(c3)nnn4-c3ccncc3)cc2[nH]1 [Example 85]	488	–	–
CN1CCC[C@@H]1c1cc2cnc(NC(=O)c3cnc4c(ccn4C)c3)cc2[nH]1 [Example 44]	–	780	–
CN1CCC[C@@H]1c1nc2ccc(NC(=O)c3cc4cccnc4cc3F)cc2[nH]1 [Example 16]	106	–	–
CN1CCC[C@@H]1c1cc2cnc(NC(=O)c3ccc4c(c3)[nH]c(=O)n4C)cc2[nH]1 [Example 48]	–	30	–
CN1CCCC[C@@H]1c1cc2cnc(NC(=O)c3ccc4cc(=O)n(C)n4c3)cc2[nH]1 [Example 97]	146	–	–
Cc1nc(C(F)(F)F)c2ccc(C(=O)Nc3cc4[nH]c([C@H]5CCCN5C)cc4cn3)cn12 [Example 53]	5290	–	–
CN1CCC[C@@H]1c1nc2ccc(NC(=O)c3ccc4onc(C5CC5)c4c3)cc2[nH]1 [Example 17]	3250	–	–
CN1CCC[C@@H]1c1nc2cc(NC(=O)c3ccc4c(cnn4-c4ccncn4)c3)ccc2[nH]1 [Example 23]	–	277	–
